In patent publication US20230265068A1, “TRANSIENT RECEPTOR POTENTIAL CANONICAL 3 INHIBITORS AND METHODS OF USE THEREOF” (University of Tennessee Research Foundation, priority 2020, published 2023):
Where two headings read alike, the source gives them in different places.

How the values were obtained:
[1] = test system: hippocampal neurons; experiment: toxicity of compound alone in hippocampal neuronal culture; format: cell-based, rat; details: compound alone at different concentrations
Procedure: (§1) To explore the potential biological effects of compound 22 in a TRPC3 related disease model, its neuroprotective ability in primary cultured neurons (14 DIV prepared from E17 rats as described) was evaluated. The effects on neuron dendritic morphology were measured by imaging. Mature hippocampal neurons (DIV=14) were treated with CHO control medium, or naturally secreted Aβ-containing conditioned medium (7PA2), or in combination with compound 22 or Pyr3 at different concentrations, for 16 hours, followed by immunocytochemistry using an antibody against MAP2 and DAPI (data not shown). […] Hippocampal neurons (DIV=14) were treated with compound 22 or Pyr3 alone at different concentrations, followed by immunocytochemistry staining with MAP2 and DAPI (data not shown).

[2] = molecular target: T1, TRPC3 (Homo sapiens, UniProt Q13507); experiment: whole-cell patch clamp of HEK293 cells transfected with hTRPC3, currents activated by GSK1702934A; format: cell-based; design: expressed in transfected cells; host or cells: HEK293 (CRL-1573), transient transfection, pMO vector
T1 sequence (Q13507 1-921): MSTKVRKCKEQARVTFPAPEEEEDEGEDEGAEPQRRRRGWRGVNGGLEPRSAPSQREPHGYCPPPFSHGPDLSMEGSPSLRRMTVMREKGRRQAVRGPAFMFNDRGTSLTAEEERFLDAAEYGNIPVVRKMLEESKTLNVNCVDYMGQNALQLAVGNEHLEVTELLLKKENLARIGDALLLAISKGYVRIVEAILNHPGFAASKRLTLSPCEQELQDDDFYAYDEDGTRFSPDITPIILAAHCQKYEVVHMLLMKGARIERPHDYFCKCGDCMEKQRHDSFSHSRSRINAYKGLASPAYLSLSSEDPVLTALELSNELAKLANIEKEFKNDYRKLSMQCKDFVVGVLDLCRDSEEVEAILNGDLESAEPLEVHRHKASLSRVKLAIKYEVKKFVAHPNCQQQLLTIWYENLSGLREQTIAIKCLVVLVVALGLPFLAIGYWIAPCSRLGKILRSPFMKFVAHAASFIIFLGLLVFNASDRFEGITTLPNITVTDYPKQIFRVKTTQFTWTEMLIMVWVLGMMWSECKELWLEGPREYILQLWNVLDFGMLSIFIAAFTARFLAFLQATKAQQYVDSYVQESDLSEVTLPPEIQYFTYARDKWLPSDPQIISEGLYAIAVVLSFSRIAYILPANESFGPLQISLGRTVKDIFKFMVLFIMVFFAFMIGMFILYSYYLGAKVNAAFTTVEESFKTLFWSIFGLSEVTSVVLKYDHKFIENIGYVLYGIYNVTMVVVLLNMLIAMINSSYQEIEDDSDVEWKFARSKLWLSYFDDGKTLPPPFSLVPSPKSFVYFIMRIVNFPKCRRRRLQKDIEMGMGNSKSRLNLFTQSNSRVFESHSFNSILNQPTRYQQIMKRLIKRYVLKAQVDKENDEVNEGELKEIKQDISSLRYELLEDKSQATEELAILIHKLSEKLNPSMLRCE
Procedure: Human embryonic kidney 293 (HEK293; catalog number CRL-1573) cells were cultured in Dulbecco's modified Eagle's medium (Invitrogen) supplemented with 10% fetal bovine serum and 1% penicillin-streptomycin at 37° C. and 5% CO2. Constructs cloned in pMO (a pcDNA3-modified vector) were co-transfected with GFP-pMO, using Lipofectamine 2000 (Invitrogen) according to the manufacturer's instructions. Macroscopic currents in the whole-cell patch clamp configuration were recorded 18-24 h post-transfection. The extracellular solution contained 140 mM NaCl, 6 mM KCl, 2 mM MgCl2, 10 mM HEPES, and 10 mM glucose (pH 7.4). Pipettes were made of borosilicate glass (outer diameter, 1.5 mm; inner diameter, 1.10 mm; Sutter Instruments) and fire-polished with a resistance between 2.8 and 4.0 megaohms when filled with an intracellular solution that contained 140 mM CsCl, 5 mM EGTA, and 10 mM HEPES, pH 7.2. Currents were recorded with a Multiclamp 700B amplifier (Molecular Devices) using a 1-s ramp from −100 to 100 mV. Agonist and antagonists perfused were dissolved in the bath solution prior experiments: TRP channel agonists Allyl isothiocyanate (AITC; TRPA1), capsaicin (TRPV1), and menthol (TRPM8) were obtained from Sigma, GSK1016790A (TRPV4) from Cayman chemicals, and GSK1702934A (TRPC3, TRPC6 and TRPC7) from Tocris Bioscience. Antagonist Pyr3 was obtained from Tocris Bioscience, all other antagonists were synthesized in house. Data were acquired with a sampling rate of 20 kHz, low-pass filtered (10 kHz), and analyzed offline using Clampfit v10.4.2.0 (Molecular Devices).
Electrophysiology results were expressed as means±SD. Data were plotted, and sigmoidal fitting was done using OriginPro (from OriginLab), with the following Boltzmann function:
Using the patch clamp technique in the whole-cell configuration, compounds were screened by challenging hTRPC3 overexpressing HEK293 cells with GSK1702934A to activate TRPC3 and each of the synthesized compounds (10 μM) individually in the presence of the agonist.
To avoid tachyphylaxis and determine the IC50 of compound 22, each point of the dose response curve (FIG. 1B) was done individually on a cell and exchanging coverslips between cells. […] FIGS. 1D-1I show the inhibition of TRPC3-mediated currents by compound 22 and Pyr3 (serving as the reference control). […] Similar results were obtained when OAG was used as the agonist (data not shown).

[3] = metabolic stability in mouse liver microsomes; format: in vitro ADME; details: mouse liver microsomes
Procedure: (§2) The metabolic stability of compound 22 was tested prior to the next phase of in vivo study. […] The maximum tolerated dose (MTD) study was subsequently performed to investigate its in vivo toxicity (FIGS. 4A and 4B). The second major limitation of Pyr3 is its toxicity due to its alkylating tail moiety. While replacing only the fast-metabolizing head ester group in Pyr3 with a stable amide (compound 79) improved metabolic stability, a single IP injection of compound 79 at 200 mg/kg killed all mice within 24 h.

[4] = test system: hippocampal neurons; experiment: neuroprotection against Aβ-containing conditioned medium (7PA2) in primary hippocampal neurons; format: cell-based, rat; details: 14 DIV neurons, 7PA2 medium, 16 hours, different concentrations
Procedure: To visualize dendritic spines, 14 DIV hippocampal neurons at low density (5,000 cells per 35 mm dish) were exposed to 7PA2 conditioned media (CM), which contains naturally secreted Aβ, or CHO control media or for 16 h, with or without cotreatment with the two inhibitor compounds, followed by immunocytochemistry with MAP2 and DAPI counterstaining.
as §1

[5] = metabolic stability in human liver microsomes; format: in vitro ADME; details: human liver microsomes
Procedure: as §2

[6] = metabolic stability in rat liver microsomes; format: in vitro ADME; details: rat liver microsomes
Procedure: as §2

[7] = molecular target: T1, TRPC3; details: literature ref 20; read-out: reported IC50 for suppression of TRPC3; cited from earlier work

Question: With `CCOC(=O)c1cnn(-c2ccc(NC(=O)C(Cl)=C(Cl)Cl)cc2)c1C(F)(F)F` [Pyr3, reference compound] as the molecule, how does the “toxicity in neuronal culture” value [1] read?
Answer: Its value is “lack of toxicity”.

Question: What about the “hTRPC3 % Inhibition at 10 μM (mean ± SEM)” value ([2]; 10 μM compound in presence of agonist GSK1702934A, HEK293 whole-cell peak current) of the same molecule?
Answer: Its value is 91.72 ± 0.53%.

Question: And the IC50 ([2]; agonist GSK1702934A, HEK293 whole-cell patch clamp, read-out: hTRPC3 IC50 (μM, mean ± SEM))?
Answer: Its IC50 is 0.53 ± 0.05 µM.

Question: And the half-life time [3]?
Answer: The half-life time was “less than 15 minutes”.

Question: And the “protection against Aβ-induced damage to dendrites (MAP2/DAPI)” value [4]?
Answer: Its value is “protect against Aβ-induced damage to dendrites”.

Question: And the half-life time [5]?
Answer: The half-life time was “less than 15 minutes”.

Question: What about the half-life time [6] of the same molecule?
Answer: Its half-life time is “less than 15 minutes”.

Question: What about the IC50 [7] of the same molecule?
Answer: Its IC50 is 700 nM.
